One data set concerns the target T1, PPARγ (Mus musculus, UniProt P37238).
T1 construct: PPARγ (aa 174 to 476); made in house; host or cells: E. coli BL21 (pLysS)
T1 sequence (P37238 174-475 isoform P37238-2): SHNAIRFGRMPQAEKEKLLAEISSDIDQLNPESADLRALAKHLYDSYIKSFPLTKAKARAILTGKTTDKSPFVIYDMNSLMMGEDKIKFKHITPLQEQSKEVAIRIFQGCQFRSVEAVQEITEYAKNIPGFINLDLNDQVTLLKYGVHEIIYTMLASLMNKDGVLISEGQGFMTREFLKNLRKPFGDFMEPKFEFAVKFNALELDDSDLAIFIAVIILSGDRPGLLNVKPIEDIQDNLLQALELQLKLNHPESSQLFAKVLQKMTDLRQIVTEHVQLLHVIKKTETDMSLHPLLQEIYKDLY
Nature of the data set: PPARγ receptor radioligand binding assay (SPA). The settings on record: GST-PPARγ-LBD fusion protein on SPA beads. From the text: (§1) Background information on the performed assays can be found in: Nichols J S et al. “Development of a scintillation proximity assay for peroxisome proliferator-activated receptor gamma ligand binding domain”, (1998) Anal. Biochem. 257:112–119.
(§2) Full-length cDNA clones for humans PPARδ and PPARα and mouse PPARγ were obtained by RT-PCR from human adipose and mouse liver cRNA, respectively, cloned into plasmid vectors and verified by DNA sequencing. Bacterial and mammalian expression vectors were constructed to produce glutathione-s-transferase (GST) and Gal4 DNA binding domain proteins fused to the ligand binding domains (LBD) of PPARδ (aa 139 to 442), PPARγ (aa 174 to 476) and PPARα (aa 167 to 469). To accomplish this, the portions of the cloned sequences encoding the LBDs were amplified from the full-length clones by PCR and then subcloned into the plasmid vectors. Final clones were verified by DNA sequence analysis.
(§3) Induction, expression, and purification of GST-LBD fusion proteins were performed in E. coli strain BL21 (pLysS) cells by standard methods (Ref: Current Protocols in Molecular Biology, Wiley Press, edited by Ausubel et al.).
(§4) PPARγ receptor binding was assayed in TKE50 (50 mM Tris-HCl, pH 8, 50 mM KCl, 2 mM EDTA, 0.1 mg/ml fatty acid-free BSA and 10 mM DTT). For each 96 well reaction a 140 ng equivalent of GST-PPARγ-LBD fusion protein was bound to 10 μg SPA beads (PharmaciaAmersham) in a final volume of 50 ul by shaking. The resulting slurry was incubated for 1 h at RT and centrifuged for 2 min at 1300g. The supernatant containing unbound protein was removed and the semidry pellet containing the receptor-coated beads was resolved in 50 ul of TKE. […] All binding assays were performed in 96 well plates and the amount of bound ligand measured on a Packard TopCount using OptiPlates (Packard). Nonspecific binding was determined in the presence of 10^−4 M unlabelled compound. […]

Another data set has as its target T2, PPARα (Homo sapiens, UniProt Q07869).
T2 construct: PPARα (aa 167 to 469); made in house; host or cells: E. coli BL21 (pLysS)
T2 sequence (Q07869 167-468 limits assumed): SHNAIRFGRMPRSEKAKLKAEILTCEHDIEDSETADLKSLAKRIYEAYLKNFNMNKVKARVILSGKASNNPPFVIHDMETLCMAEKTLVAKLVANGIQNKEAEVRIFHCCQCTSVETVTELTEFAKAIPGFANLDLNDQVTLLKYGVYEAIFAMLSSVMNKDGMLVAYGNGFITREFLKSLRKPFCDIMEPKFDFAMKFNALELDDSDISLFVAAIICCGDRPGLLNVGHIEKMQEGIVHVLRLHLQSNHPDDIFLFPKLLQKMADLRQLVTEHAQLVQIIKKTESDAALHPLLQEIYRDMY
Kind of data set: PPARα receptor radioligand binding assay (SPA). The settings on record: GST-PPARα-LBD fusion protein on SPA beads.
Description: as §1, §2, §3
as §4, with “PPARα receptor” for “PPARγ receptor”, “reaction an” for “reaction a”, “of GST-PPARα-LBD” for “of GST-PPARγ-LBD”, “50 μl” for “50 ul”, “at 1300 g.” for “at 1300g.”

Another data set has as its target T3, PPARδ (Homo sapiens, UniProt Q03181).
T3 construct: PPARδ (aa 139 to 442); made in house; host or cells: E. coli BL21 (pLysS)
T3 sequence (Q03181 139-441 limits assumed): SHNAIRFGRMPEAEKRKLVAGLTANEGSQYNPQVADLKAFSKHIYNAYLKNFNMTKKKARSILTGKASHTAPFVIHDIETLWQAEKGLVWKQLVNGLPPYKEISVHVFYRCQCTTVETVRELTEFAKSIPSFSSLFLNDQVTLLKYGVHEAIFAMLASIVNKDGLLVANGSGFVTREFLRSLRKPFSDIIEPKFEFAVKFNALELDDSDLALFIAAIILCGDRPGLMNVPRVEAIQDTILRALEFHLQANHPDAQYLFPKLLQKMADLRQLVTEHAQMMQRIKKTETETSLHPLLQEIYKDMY
Kind of data set: PPARδ receptor radioligand binding assay (SPA). The settings on record: GST-PPARδ-LBD fusion protein on SPA beads.
Description: as §1, §2, §3
PPARδ receptor binding was assayed in HNM10 (50 mM Hepes, pH 7.4, 10 mM NaCl, 5 mM MgCl2, 0.15 mg/ml fatty acid-free BSA and 15 mM DTT). For each 96 well reaction a 500 ng equivalent of GST-PPARδ-LBD fusion protein and radioligand, e.g. 20000 dpm {2-methyl-4-[4-methyl-2-(4-trifluoromethyl-phenyl)-thiazol-5-yl-ditritiomethylsulfanyl]-phenoxy}-acetic acid, was bound to 10 μg SPA beads (PharmaciaAmersham) in a final volume of 50 μl by shaking. The resulting slurry was incubated for 1 h at RT and centrifuged for 2 min at 1300 g. […] Radioligand was added and the reaction incubated at RT for 1 h and scintillation proximity counting performed in the presence of test compounds was determined. All binding assays were performed in 96 well plates and the amount of bound ligand was measured on a Packard TopCount using OptiPlates (Packard). […]

pIC50: −log10 of the molar value.

A word on the pIC50: it is −log10 of the IC50, conventionally taken in molar units. A low value points to a large IC50. The term melting point denotes the temperature, or range, at which the solid turns liquid. Molecule `Cc1cc(OCc2ccc(-c3cccc(C(F)(F)F)c3)nc2C)ccc1OC(C)(C)C(=O)O` [Example 8, 2-Methyl-2-{2-methyl-4-[2-methyl-6-(3-trifluoromethyl-phenyl)-pyridin-3-ylmethoxy]-phenoxy}-propionic acid] yielded a melting point of 105 to 107 °C. The molecule further had a negative logarithm of the IC50 (pIC50) at PPARγ of less than 5.00. The molecule also had a pIC50 at PPARα of 7.89. The molecule further showed a pIC50 on PPARδ of 7.59.
As to `Cc1cc(N(C)Cc2cnc(-c3ccc(C(F)(F)F)cc3)nc2C2CC2)ccc1OCC(=O)O` [Example 27, (4-{[4-Cyclopropyl-2-(4-trifluoromethyl-phenyl)-pyrimidin-5-ylmethyl]-methyl-amino}-2-methyl-phenoxy)-acetic acid], the pIC50 on PPARγ is less than 5.00; on PPARα, 6.54; on PPARδ, 7.51.

These data come from US7115611B2, “Phenyl derivatives, their manufacture and use as pharmaceutical agents” (Hoffmann-la Roche Inc., priority 2003, dated 2006).
